Here are results for 25 compounds from ChEMBL document CHEMBL5380826, “Conformationally Restricted σ1 Receptor Antagonists from (-)-Isopulegol” (J Med Chem, 2023).

The target of data set [1] is Sigma non-opioid intracellular receptor 1 (Cavia porcellus, UniProt Q60492). Put plainly: Displacement of [3H]-(+)-pentazocine from guinea pig brain membrane sigma 1 receptor assessed as inhibition constant measured after 120 mins by scintillation counting method. Format: cell membranes. On the technique in general: In a radioligand displacement assay an active substance lowers the binding of a labelled ligand.

In data set [2] the target is T1, Sigma intracellular receptor 2 (Rattus norvegicus, UniProt Q5U3Y7).
T1 sequence (Q5U3Y7 whole entry): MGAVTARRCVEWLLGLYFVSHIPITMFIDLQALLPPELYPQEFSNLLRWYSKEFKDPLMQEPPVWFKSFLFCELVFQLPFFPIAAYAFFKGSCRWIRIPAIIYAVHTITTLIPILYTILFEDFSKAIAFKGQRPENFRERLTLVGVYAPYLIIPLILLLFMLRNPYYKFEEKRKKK
Put plainly: Displacement of [3H]di-o-tolylguanidine from rat liver membrane sigma 2 receptor assessed as inhibition constant measured after 120 mins by scintillation counting method. Format: cell membranes.

In data set [3] the target is Glutamate receptor ionotropic, NMDA 2B (Mus musculus, UniProt P35438+Q01097). The data set is described as follows: Displacement of [3H]ifenprodil from GluN2B in mouse LTK cells assessed as inhibition constant measured after 120 mins by scintillation counting method. Format: cell-based.
For data set [4], the target named is T2, Sigma intracellular receptor 2 (Rattus norvegicus) (UniProt Q5U3Y7).
T2 sequence (whole entry): T1 sequence (Q5U3Y7 whole entry)
The data set is described as follows: Displacement of [3H]di-o-tolylguanidine from rat liver membrane sigma 2 receptor at 1 uM measured after 120 mins by scintillation counting method relative to control. Format: cell membranes.

For data set [5], the target named is Glutamate receptor ionotropic, NMDA 2B (Mus musculus) (UniProt Q01097). Put plainly: Displacement of [3H]ifenprodil from GluN2B in mouse LTK cells at 1 uM measured after 120 mins by scintillation counting method relative to control. Format: cell-based.
Data set [6] is described as follows: Lipophilicity, logD of the compound at pH 7.4 by LC-MS analysis. Format: physicochemical. The following applies: buffer.
Data set [7] is described as follows: Plasma protein binding in human by HPAC method. Format: ADME, cell-free. The conditions noted are these: read-out: PPB (converted).
Data set [8] in a line: Metabolic stability in C57BL/6 mouse liver microsomes assessed as compound remaining incubated for 90 mins in presence of NADPH by LC-MS analysis. Format: ADME, Microsome. The following applies: read-out: Activity.
Data set [9] concerns Mus musculus. The data set is described as follows: Antiallodynic activity in capsaicin-induced allodynia CD1 mouse model at 16 mg/kg, sc pretreated for 30 mins followed by capsaicin addition and measured after 15 mins relative to control. Format: functional. The following applies: time 45 min, 0.75 h.
Data set [10] has as its system Mus musculus. Put plainly: Antiallodynic activity in capsaicin-induced mechanical allodynia CD1 mouse model assessed as increase in paw withdrawal latency at 4 to 32 mg/kg, sc pretreated for 30 mins followed by capsaicin addition and measured after 15 mins. Format: functional, organism-based. The conditions noted are these: dose 4-32 mg/kg, time 45.0 min.
The subject of data set [11] is Mus musculus. The data set is described as follows: Antiallodynic activity in capsaicin-induced mechanical allodynia CD1 mouse model assessed as increase in paw withdrawal latency at 16 mg/kg, sc pretreated with PRE-084 followed by compound addition. Format: functional, organism-based.
The subject of data set [12] is Mus musculus. Put plainly: Antiallodynic activity in sc dosed capsaicin-induced allodynia CD1 mouse model pretreated for 30 mins followed by capsaicin addition and measured after 15 mins. Format: functional. The conditions noted are these: CD1, 0.75 h, time 45 min.
For data set [13], the system named is Mus musculus. Put plainly: Antiallodynic activity in capsaicin-induced mechanical allodynia CD1 mouse model assessed as increase in paw withdrawal latency at 32 mg/kg, sc pretreated for 30 mins followed by capsaicin addition and measured after 15 mins. Format: functional, organism-based. The conditions noted are these: time 45.0 min.
Data set [14] deals with Mus musculus. Put plainly: Antiallodynic activity in capsaicin-induced allodynia CD1 mouse model at 16 mg/kg, ip measured after 15 mins relative to control. Format: functional. The following applies: 0.25 h.
Data set [15] has as its system Mus musculus. Put plainly: Antiallodynic activity in ip dosed capsaicin-induced allodynia CD1 mouse model measured after 15 mins. The following applies: CD1, 0.25 h. Format: functional.

Each structure is given as a SMILES string. Calls of active or inactive are those of the source. No cut-off for these calls is given here. Bounds are passed on as bounds.

For orientation: Ki means the dissociation constant of the complex between target and ligand, obtained from inhibition or displacement. As usually defined, the inhibition is the relative decrease from the control value, in per cent. A higher inhibition goes with a response far below the control. As a reminder, the logD is the decadic logarithm of the distribution of all forms, ionised or not, between an organic phase and buffer at a given pH. A high value points to higher lipophilicity. As a reminder, the ED50 is the dose that gives a 50% effect, or the effect in half of the subjects.

Sequence of Glutamate receptor ionotropic, NMDA 2B (Mus musculus) (Q01097 whole entry): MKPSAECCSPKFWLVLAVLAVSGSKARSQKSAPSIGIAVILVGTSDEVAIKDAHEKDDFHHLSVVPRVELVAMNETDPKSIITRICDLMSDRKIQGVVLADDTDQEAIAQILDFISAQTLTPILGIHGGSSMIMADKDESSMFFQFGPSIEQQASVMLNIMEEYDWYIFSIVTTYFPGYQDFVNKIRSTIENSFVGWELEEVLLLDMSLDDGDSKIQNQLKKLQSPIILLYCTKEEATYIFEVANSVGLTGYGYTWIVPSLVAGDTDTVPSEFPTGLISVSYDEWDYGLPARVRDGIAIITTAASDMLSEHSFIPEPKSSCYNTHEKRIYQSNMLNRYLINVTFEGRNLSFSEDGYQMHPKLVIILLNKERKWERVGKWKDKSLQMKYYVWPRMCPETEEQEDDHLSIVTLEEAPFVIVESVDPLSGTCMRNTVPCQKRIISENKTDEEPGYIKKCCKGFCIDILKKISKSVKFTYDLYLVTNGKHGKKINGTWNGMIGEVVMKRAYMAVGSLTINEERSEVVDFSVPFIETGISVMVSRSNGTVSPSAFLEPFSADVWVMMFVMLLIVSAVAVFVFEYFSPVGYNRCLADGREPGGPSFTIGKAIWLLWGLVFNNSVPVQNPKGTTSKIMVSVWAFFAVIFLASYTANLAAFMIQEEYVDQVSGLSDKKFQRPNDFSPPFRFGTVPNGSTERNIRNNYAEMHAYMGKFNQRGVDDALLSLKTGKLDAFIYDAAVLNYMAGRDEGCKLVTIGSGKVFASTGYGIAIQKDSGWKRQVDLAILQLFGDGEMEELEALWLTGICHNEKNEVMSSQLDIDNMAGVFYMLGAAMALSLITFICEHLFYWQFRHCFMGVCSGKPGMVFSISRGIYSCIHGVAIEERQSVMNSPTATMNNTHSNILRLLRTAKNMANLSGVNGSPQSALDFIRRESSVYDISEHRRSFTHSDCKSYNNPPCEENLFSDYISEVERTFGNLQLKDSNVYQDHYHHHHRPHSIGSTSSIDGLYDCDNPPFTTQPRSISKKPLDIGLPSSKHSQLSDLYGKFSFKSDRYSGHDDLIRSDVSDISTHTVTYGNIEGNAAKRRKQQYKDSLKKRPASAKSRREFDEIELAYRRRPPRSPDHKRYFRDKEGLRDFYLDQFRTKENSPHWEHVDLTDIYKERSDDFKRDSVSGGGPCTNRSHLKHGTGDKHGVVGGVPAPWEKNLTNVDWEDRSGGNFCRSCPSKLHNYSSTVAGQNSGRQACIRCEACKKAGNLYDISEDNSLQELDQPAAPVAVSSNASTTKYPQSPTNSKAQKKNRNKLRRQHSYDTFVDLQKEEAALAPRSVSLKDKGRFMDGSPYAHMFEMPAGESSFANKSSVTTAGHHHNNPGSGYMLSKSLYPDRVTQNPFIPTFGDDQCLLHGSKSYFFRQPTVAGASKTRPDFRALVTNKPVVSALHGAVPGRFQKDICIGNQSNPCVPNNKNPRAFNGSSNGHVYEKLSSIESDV
Sequence of Glutamate receptor ionotropic, NMDA 2B (Q01097 whole entry, one chain of several): as the sequence (Q01097 whole entry) above
Sequence of Sigma non-opioid intracellular receptor 1 (Q60492 whole entry): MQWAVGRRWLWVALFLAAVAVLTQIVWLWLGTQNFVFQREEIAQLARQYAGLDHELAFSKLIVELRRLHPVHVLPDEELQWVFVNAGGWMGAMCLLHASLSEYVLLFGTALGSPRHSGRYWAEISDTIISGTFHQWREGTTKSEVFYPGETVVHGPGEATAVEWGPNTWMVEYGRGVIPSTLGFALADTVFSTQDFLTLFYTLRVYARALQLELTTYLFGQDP

As to `C[C@@H]1CC[C@@H]2[C@H](C1)OCO[C@@]2(C)CNCCCCc1ccccc1`, the figures for the Ki in data set [1], in data set [2] and in [3] were 8.6 nM, 525 nM and 313 nM, respectively.

Take `C[C@@H]1CC[C@@H]2[C@@H](C1)OC(C)(C)O[C@@]2(C)CN1CCC(Cc2ccccc2)CC1`: the Ki amounted to 16 nM in [1], 649 nM in data set [2] and 1300 nM in data set [3].

With `C[C@@H]1CC[C@@H]2[C@H](C1)OCO[C@]2(C)CNCCCCc1ccccc1`, the Ki turned out to be 42 nM in [1], 273 nM in data set [2] and 263 nM in data set [3].

Turning to `C[C@@H]1CC[C@@H]2[C@H](C1)OCO[C@]2(C)CN1CCC(Cc2ccccc2)CC1`, the figures for the inhibitory constant (Ki) in data set [1], in data set [2] and in [3] were 3.5 nM, 123 nM and 267 nM, respectively.

Consider `C[C@@H]1CC[C@@H]2[C@@H](C1)OCO[C@]2(C)CN1CCC(Cc2ccccc2)CC1`, for which the figures for the Ki in data set [1], in data set [2] and in data set [3] were 1.6 nM, 379 nM and 370 nM, respectively.

Turning to `C[C@@H]1CC[C@@H]2[C@@H](C1)OC(C)(C)O[C@]2(C)CN1CCC(Cc2ccccc2)CC1`, the Ki in data set [1] came out at 114 nM; in data set [2], 880 nM; in [3], 423 nM.

`C[C@@H]1CC[C@@H]([C@@](C)(O)CN2CCC(Cc3ccccc3)CC2)[C@@H](O)C1`: the values for the Ki in data set [1], in data set [2] and in data set [3] were 1 nM, 172 nM and 125 nM, respectively.

Consider `C[C@@H]1CC[C@@H]([C@@](C)(O)CNCCCCc2ccccc2)[C@@H](O)C1`, for which the values for the Ki in [1], in [2] and in [3] were 7 nM, 424 nM and 1060 nM, respectively.

On to `C[C@@H]1CC[C@@H]2[C@H](C1)OC1CN(CCCCc3ccccc3)C[C@]2(C)O1` (single isomer, unassigned), for which the Ki in [1] was found to be 725 nM. The inhibition in data set [4] and in data set [5] was 0% in each case.

Consider `C[C@@H]1CC[C@@H]([C@@](C)(O)CN2CCC(Cc3ccccc3)CC2)[C@H](O)C1`, for which the inhibitory constant (Ki) worked out at 1.2 nM in data set [1], 36 nM in [2] and 53 nM in data set [3]. In addition, in data set [6], the pH-dependent lipophilicity (logD) is 3.05. Also, the fraction unbound in data set [7] was 0.122. Besides, the remaining at 1.5 h in [8] worked out at 19%. Further, in the data set on Mus musculus [9], the Activity is reported as around 89%. Further, in the data set on Mus musculus [10], the outcome was Active. Moreover, in the data set on Mus musculus [11], the result was inactive. Besides, the ED50 in the data set with Mus musculus [12] was around 8 mg/kg.

In the case of `C[C@@H]1CC[C@@H]2[C@@H](C1)OCO[C@@]2(C)CNCCCCc1ccccc1`, the inhibition constant Ki turned out to be 69 nM in data set [1], 86 nM in [2] and 61 nM in [3]. This compound registered a logD in [6] of 2.67. In addition, the fraction unbound in data set [7] is 0.061.

Take `C[C@@H]1CC[C@@H]2[C@@H](C1)OCO[C@@]2(C)CN1CCC(Cc2ccccc2)CC1`: the figures for the Ki in [1], in data set [2] and in data set [3] were 5 nM, 119 nM and 36 nM, respectively. This compound also had a logD in data set [6] of 3.45.

Regarding `C[C@@H]1CC[C@@H]([C@@](C)(O)CNCCCCc2ccccc2)[C@H](O)C1`, the results for the Ki in data set [1], in data set [2] and in data set [3] were 8.2 nM, 850 nM and 1300 nM, respectively. In data set [6], this compound displayed a pH-dependent lipophilicity (logD) of 1.84. The fraction unbound in data set [7] was 0.073.

For `C[C@@H]1CC[C@@H]2[C@H](C1)OCO[C@@]2(C)CN1CCC(Cc2ccccc2)CC1`, the inhibition constant (Ki) came out at 4.9 nM in data set [1], 145 nM in [2] and 205 nM in data set [3].

`C[C@@H]1CC[C@@H]2[C@H](C1)O[C@@H]1CN(CCCCc3ccccc3)C[C@@]2(C)O1`: the figures for the Ki in data set [1], in [2] and in data set [3] were 54 nM, 779 nM and 890 nM, respectively.

For the compound `CN1CCN(CCc2ccc(Cl)c(Cl)c2)CC1`, the Ki in data set [1] came to 449 nM; in data set [3], 49 nM.

For `C[C@@H]1CC[C@@H]2[C@@H](C1)O[C@H]1CN(CCCCc3ccccc3)C[C@]2(C)O1`, in data set [1], the Ki was found to be 2100 nM. Also, the logD in [6] came out at 3.96. Also, the fraction unbound in [7] was below 0.02. Also, the results for the inhibition in data set [4] and in data set [5] were 0% and 6%, respectively.

Turning to `C[C@@H]1CC[C@@H]2[C@@H](C1)O[C@@H]1CN(CCCCc3ccccc3)C[C@@]2(C)O1`, the results for the inhibition constant Ki in data set [1] and in data set [2] were 805 nM and 1600 nM, respectively. In [5], this compound came in with an inhibition of 0%.

On to `C[C@@H]1CC[C@@H]([C@](C)(O)CNCCCCc2ccccc2)[C@@H](O)C1`, for which the inhibition constant Ki in data set [1] is 43 nM; in data set [2], 265 nM; in [3], 511 nM.

As for `C[C@@H]1CC[C@@H]([C@](C)(O)CNCCCCc2ccccc2)[C@H](O)C1`, the inhibition constant (Ki) in [1] came to 31 nM; in data set [2], 207 nM; in data set [3], 508 nM.

With `COc1ccc(CC2CCN(C[C@](C)(O)[C@@H]3CC[C@@H](C)C[C@H]3O)CC2)cc1`, the inhibitory constant (Ki) in [1] came out at 2.9 nM; in [2] it was 75 nM; in data set [3], 45 nM.

As for `C[C@@H]1CC[C@@H]([C@](C)(O)CN2CCC(Cc3ccccc3)CC2)[C@@H](O)C1`, the inhibition constant (Ki) was 18 nM in data set [1], 216 nM in data set [2] and 363 nM in data set [3].

Take `Cc1cc(OCCN2CCOCC2)nn1-c1ccc2ccccc2c1`: the inhibition constant (Ki) in data set [1] is above 1000 nM; in [3], above 58 nM. Further, the result in the data set on Mus musculus [13] was Active. The compound also had an Activity in the data set with Mus musculus [14] of 43%. The 50% effect level with Mus musculus [15] (ED50) was put at a dose of 26.3 mg/kg.

As to `C[C@@H]1CC[C@@H]2[C@@H](C1)OCO[C@]2(C)CNCCCCc1ccccc1`, the results for the inhibitory constant (Ki) in data set [1], in [2] and in data set [3] were 9.7 nM, 322 nM and 408 nM, respectively.

Take `C[C@@H]1CC[C@@H]([C@](C)(O)CN2CCC(Cc3ccccc3)CC2)[C@H](O)C1`: the inhibitory constant (Ki) was 2.8 nM in data set [1], 194 nM in data set [2] and 92 nM in [3].
